Assay: Concentration of gas dissolved in cell culture liquid or pure water after bubbling, measured by gas chromatography
Format: physicochemical
Settings: for Correction coefficient α: ratio of average gas concentrations in cell culture liquid and pure water
Protocol: The gas shown in Table 1 was bubbled at 20 mL/min for 1 minute in 5 mL of a cell culture medium (liquid containing 6.4 g/L of sodium chloride, 4.7 g/L of D-glucose, 3.7 g/L of sodium bicarbonate, L-lysine hydrochloride, 0.84 g/L of L-arginine hydrochloride, 0.58 g/L of L-glutamine, and 0.3 g/L of calcium chloride) or in 5 mL of purified water, at a liquid temperature of 23° C.; and dissolved. Subsequently, the concentration of a gas dissolved in the cell culture liquid or pure water was measured by gas chromatography (Shimadzu Corporation). Each measurement was repeated three times, and the average gas concentration was calculated. The correction coefficient α was then obtained by dividing the average gas concentration in the cell culture liquid by the average gas concentration in the pure water.
At a later date, the same measurements as above were performed, and the correction coefficient was calculated in the same manner.

[1] = Table 1, gas bubbled at 20 mL/min for 1 minute in 5 mL cell culture medium, liquid temperature 23° C., average of three measurements
[2] = Table 1, gas bubbled at 20 mL/min for 1 minute in 5 mL purified water, liquid temperature 23° C., average of three measurements
[3] = Table 2, repeated at a later date
[4] = Table 2, same measurements repeated at a later date, cell culture medium, 23° C.
[5] = Table 2, same measurements repeated at a later date, purified water, 23° C.

| SMILES | Gas concentration, Cell culture liquid [1] | Gas concentration, Pure water [2] | Correction coefficient α (Table 1) | Correction coefficient α [3] | Gas concentration, Cell culture liquid [4] | Gas concentration, Pure water [5] |
| --- | --- | --- | --- | --- | --- | --- |
| C=C(F)C(F)(F)F [CF3—CF═CH2] | 262 ppm | 331 ppm | 1.26 | 1.25 | 288 ppm | 360 ppm |
| FC(F)Cl [CHF2Cl] | 1785 ppm | 2399 ppm | 1.34 | 1.33 | 1820 ppm | 2421 ppm |
| FCC(F)(F)F [CH2F—CF3] | 529 ppm | 656 ppm | 1.24 | 1.26 | 599 ppm | 755 ppm |
| FCF [CH2F2] | 2972 ppm | 4140 ppm | 1.39 | 1.36 | 2701 ppm | 3673 ppm |

— patent publication US12000819B2, “Gas concentration prediction method” (DAIKIN INDUSTRIES, LTD., priority 2018, dated 2024)
